{"source": "patent US6767569B1", "about": "“Surface decontamination of cooked sausage and processed meat and poultry products” (priority 1999, dated 2004)", "key": {"[1]": {"tested_on": "E. coli", "type": "cell-based", "details": "5 seconds spray", "procedure": "(§1) Samples of pork skin were inoculated separately with either 5 strains of E. coli or 5 strains of Salmonella spp. (mixtures X and Y, see Example 4). Five different treatments were evaluated for effectiveness in reducing bacteria on pork skin. […] EMB agar was used for E. coli and XLD for Salmonella, and a nutrient agar was also used for E. coli and Salmonella for total count.\n(§2) The five strains of generic E. coli and five strains of Salmonella spp. were cultured and transferred individually into 100 mL of tryptic soy broth (TSB, DIFCO, Detroit, Mich.) with 1% dextrose (Sigma, St. Louis, Mo.) in duplicate. Dextrose was added to induce acid tolerance in the microbial cell. The cultures were incubated at 35° C. for 24 hrs. to obtain ca. 10^9 colony forming units (CFU)/mL. The cells were harvested by the centrifuging each culture at 10,000 Xg force for 10 min. at 4° C., (Beckman J2-HS centrifuge, Beckman Instruments, Inc., Palo Alto, Calif.). After centrifugation, the supernatant was poured off, and cells remained in pellet form. Each pellet was individually re-suspended with 50 mL of 0.1% peptonewater (DIFCO, Detroit, Mich.). All five strains of E. coli or Salmonella spp. inoculum were transferred to separate HDPE plastic spray bottles (Sprayco™, Detroit, Mich.) to be used in the mist inoculation of pork skin samples.\n(§3) For E. coli, PCA and EMB media were used, and for Salmonella, PCA and XLD media were used. Bacto Plate Count Agar (PCA) was used in this study as a standard methods medium for the enumeration of bacteria before and after treatments. Spiral (sl), or spread (sd) plate technique were used for viable cell counts. Duplicate plates were performed for each treatment.\n(§4) Fresh pork skins taken from the loin region were cut to rectangles of 19.35 cm^2. A hole was bored into the top of each sample so that each sample could be suspended from an individual hook in the spray cabinet. Samples were laid out onto trays wrapped in butcher paper. Each tray was individually spray inoculated with E. coli or Salmonella spp. in a Plexiglas spray chamber to ca. 8.4 mL of inoculum. After the inoculation, each tray was placed under a laminar flow hood for 1 hr. to allow the surface to dry and for the attachment of the bacteria to the pork skin.\n(§5) The peracetic acid (PAA) used in this study was a 35.0% PAA buffered, liquid solution prepared from a STERIS 20™ two compartment cup (a dry powder containing anticorrosive additives, buffers, sequestrants, and surfactants). The peracetic acid determined before each use of the treatment using a calibration curve.\n(§6) Five inoculated samples were individually placed on stainless steel hooks in. a spray cabinet at ambient temperature.\n(§7) The samples were exposed to a continuous spray of the selected treatment for 5 seconds at a spray pressure of 16-18 psi.\n(§8) The treated samples were placed into individual stomacher bags containing 30 mL of 0.1% peptone water (DIFCO, Detroit, Mich.) and stomached for 2 min. Serial dilutions of 0, 10^−2, and 10^−4 were spiral plated (WASP spiral plater, Bioscience International, Rockville, Md.) on PCA (DIFCO, Detroit, Mich.) and EMB (DIFCO, Detroit, Mich.) for E. coli and on plate count agar (PCA, DIFCO, Detroit, Mich.) and xylose lysine decarboxylase agar (XLD, DIFCO, Detroit, Mich.) for Salmonella spp. Samples were also spread plated on PCA and EMB agar for E. coli or PCA and XLD agar for Salmonella spp, using […] for a total of 1 mL on 4 plates. This was to ensure a countable plate. Plates were inverted and incubated at 35° C. for 24 hrs. (48 hrs. for Salmonella spp.)."}, "[2]": {"tested_on": "Salmonella spp.", "type": "cell-based", "details": "pork skin; 5 seconds spray; 2% lactic acid, 2% acetic acid, 0.1% peracetic acid; after 48 hours", "procedure": "as §1, §2, §3, §4, §5, §6, §7, §8"}, "[3]": {"details": "pork skin, 2% lactic acid, 2% acetic acid, 0.1% peracetic acid, after 24 hours"}}}
{"molecule": "CC(=O)OO", "note": "[peracetic acid]", "values": [{"measurement": "reduction of E. coli on pork skin", "setting": "[1]; peracetic acid 0.1%", "result": 3, "unit": "log/cm^2"}, {"measurement": "Total Count (E. coli) on EMB", "setting": "[1]; [3]", "result": 3.04, "unit": "Log CFU/cm^2"}, {"measurement": "Total Count (E. coli) on PCA", "setting": "[1]; [3]", "result": 3.28, "unit": "Log CFU/cm^2"}, {"measurement": "Total Count (Salmonella) on PCA", "setting": "[2]", "result": 5.34, "unit": "Log CFU/cm^2"}, {"measurement": "Total Count (Salmonella) on XLD", "setting": "[2]", "result": 3.83, "unit": "Log CFU/cm^2"}]}
